Read-outs that look alike come from different tables or passages of the source.
Columns and labels:
[1] = target: T1, Recombinant Rhinovirus 3C protease (RVP) serotype-14 (Human rhinovirus 14, UniProt P03303); test: Inhibition of Rhinovirus Protease (fluorescence resonance energy transfer assay), serotype 14; format: biochemical, human rhinovirus (HRV); conditions: RVP serotype-14; for kobs/I: progress curves in enzyme start experiments; for INHIB (percent inhibition): 10 minute preincubation with 50 nM RVP; for Ki: 10 minute preincubation, substrate start, read-out: INHIB (Ki)
T1 construct: Recombinant Rhinovirus 3C proteases from serotypes 14, 16, 2 or 89; made in house
Experimental: Stock solution (50 mM, in DMSO) of various compounds were prepared; dilutions were in the same solvent. […] Assays contained 2% DMSO, 50 mM tris pH 7.6, 1 mM EDTA, a compound at the indicated concentrations, approximately 1 μM substrate, and 50-100 nM protease. […] The kobs/I values were obtained from reactions initiated by addition of enzyme rather than substrate. RVP activity is measured in the fluorescence resonance energy transfer assay. […] In the uncleaved peptide, the EDANS fluorescence was quenched by the proximal DABCYL moeity. When the peptide was cleaved, the quenching was relieved, and activity was measured as an increase in fluorescence signal.
In the above table, all data is RVP serotype-14 unless otherwise noted in parentheses. All strains of human rhinovirus (HRV) were purchased from American Type Culture Collection (ATCC), except for serotype 14, which was produced from the infectious cDNA clone constructed and supplied to us by Dr. Roland Rueckert at the Institute for Molecular Virology, University of Wisconsin, Madison, Wisc. […] The data in the column designated kobs/I was measured from progress curves in enzyme start experiments.

HRV-14 = test: Antirhinoviral HI-HeLa Cell Culture Assay (Cell Protection Assay, XTT dye reduction); format: cell-based, human rhinovirus (HRV) serotype-14; conditions: HI-HeLa cells infected with HRV-14, m.o.i. 0.13; two days; XTT; read-out: EC50
Experimental: In the Cell Protection Assay, the ability of compounds to protect cells against HRV infection was measured by the XTT dye reduction method. This method is described in Weislow, O. S., R. Kiser, D. L. Fine, J. Bader, R. H. Shoemaker, and M. R. Boyd, J. Natl. Cancer Inst. 1989, 81, 577-586, which is incorporated herein by reference.
(§1) HI-HeLa cells were infected with HRV-14 at a multiplicity of infection (m.o.i.) of 0.13 (virus particles/cell) or mock-infected with medium only. Infected or mock-infected cells were resuspended at 8×10^5 cells per mL and incubated with appropriate concentration of compounds of formulas I and II. Two days later, XTT/PMS was added to test plates and the amount of formazan produced was quantified spectrophotometrically at 450/650 nm. […] The therapeutic index (TI) was calculated by dividing the CC50 by the EC50.
(§2) All strains of human rhinovirus (HRV) for use in this assay were purchased from American Type Culture Collection (ATCC), except for HRV serotype-14, which was produced from the infectious cDNA clone, constructed and supplied to us by Dr. Roland Rueckert at the Institue for Molecular Virology, University of Wisconsin, Madison, Wisc. HRV stocks were propagated, and antiviral assays were perforemd in HI-HeLa cells (ATCC). Cells were grwon in Minimal Essential Medium, available from Life Technologies, with 10% fetal bovine serum.
The compounds were tested against control compounds WIN 51711, WIN 52084, and WIN 54954, all obtained from Sterling-Winthrop Pharmaceuticals, and control compound Pirodavir, obtained from Janssen Pharmaceuticals.

HI-HeLa cells = test: Cytotoxicity in mock-infected HI-HeLa cells (antirhinoviral assay, XTT); format: cell-based
Experimental: as §1, §2

[2] = mock-infected HI-HeLa cells, two days, XTT, read-out: CC50

T1 sequence (P03303 1538-1719): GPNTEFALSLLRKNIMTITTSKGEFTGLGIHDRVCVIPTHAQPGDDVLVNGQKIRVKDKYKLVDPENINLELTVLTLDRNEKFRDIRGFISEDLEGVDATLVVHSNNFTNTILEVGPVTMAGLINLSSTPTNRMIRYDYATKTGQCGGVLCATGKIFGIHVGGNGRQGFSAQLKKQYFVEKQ

SMILES	kobs/I [1]	EC50 (HRV-14) [µM]	CC50 (HI-HeLa cells) [µM]	CC50 (HI-HeLa cells; [2]) [µM]	INHIB (percent inhibition) [1]	INHIB (percent inhibition) ([1]; 10 μM compound)	Ki [1] [µM]
CCN(CC)c1ccc(C(=O)/C=C/[C@H](CCC(N)=O)NC(=O)[C@H](Cc2ccccc2)NC(=O)[C@H](CC(C)C)NC(=O)OCc2ccccc2)cc1 [Compound 43]	4,500 M-1 sec-1	10	18				
CC(C)C[C@H](NC(=O)OCc1ccccc1)C(=O)N[C@@H](Cc1ccccc1)C(=O)N[C@H](/C=C/C(=O)N1CCCO1)CCC(N)=O [Compound 79]	13,900 M-1 sec-1	45		> 320			
CC(C)C[C@H](NC(=O)OCc1ccccc1)C(=O)N[C@@H](Cc1ccccc1)C(=O)N[C@H](/C=C/C(=O)c1ccc2c(c1)OCO2)CCC(N)=O [Compound 46]	120,000 M-1 sec-1	3.2	45				
CCOC(=O)/C=C/[C@H](CCC(N)=O)NC(=O)[C@H](Cc1ccc(COC)cc1)NC(=O)[C@H](CC(C)C)NC(=O)OCc1ccccc1 [Compound 140]	7,122 M-1 sec-1	39	> 320				
CCOC(=O)/C=C/[C@H](COC(=O)NC(=O)CCl)NC(=O)[C@H](Cc1ccccc1)NC(=O)[C@H](CC(C)C)NC(=O)OCc1ccccc1 [Compound 122]	1,252 M-1 sec-1	1.78	10				
CC(C)C[C@H](NC(=O)OCc1ccccc1)C(=O)N[C@@H](Cc1ccccc1)C(=O)N[C@H](/C=C/c1ccno1)CCC(N)=O [Compound 150]	573 M⁻¹ s⁻¹	> 320		> 320			
CC(C)C[C@H](NC(=O)OCc1ccccc1)C(=O)N[C@@H](Cc1ccccc1)C(=O)N[C@H](/C=C/C(=O)n1cccc1)CCC(N)=O [Compound 66]	400,000 M-1 sec-1	1.4	6.3				
CC(C)C[C@H](NC(=O)OCc1ccccc1)C(=O)N[C@@H](Cc1ccccc1)C(=O)N[C@H](/C=C/C(=O)C(C)(C)C)CCC(N)=O [Compound 52]	15,000 M-1 sec-1	1.7	5.6				
CCOC(=O)/C=C/[C@H](CCC(N)=O)NC(=O)CNC(=O)[C@H](CC(C)C)NC(=O)OCc1ccccc1 [Compound 99]		141	> 320		10 (50) percent		
CCCS(=O)(=O)N[C@@H](Cc1ccccc1)C(=O)N[C@H](/C=C/C(=O)OCC)CCC(N)=O [Compound 31, Ethyl-3-[N-(Propylsulfonyl)-L-Phe-L-Gln]-E-Propenoate]	21 M⁻¹ s⁻¹	50.1	> 100			25(10) percent	
CCOC(=O)/C(C)=C/[C@H](CCC(N)=O)NC(=O)[C@H](Cc1ccc(F)cc1)NC(=O)[C@@H](NC(=O)SC1CCCC1)C(C)(C)C [Compound 177, Ethyl-2-Methyl-3-[Cyclopentylthiocarbonyl-L-α-(t-Butyl-Gly)-L-(4-F-Phe)-L-Gln]-E-Propenoate]	80,300 M-1 sec-1	0.5	> 100				
CCOC(=O)/C(C)=C/[C@H](CCC(N)=O)NC(=O)[C@H](Cc1ccc(C)cc1)NC(=O)[C@@H](NC(=O)SC1CCCC1)C(C)(C)C [Compound 175, Ethyl-2-Methyl-3-[Cyclopentylthiocarbonyl-L-α-(t-Butyl-Gly)-L-(4-Me-Phe)-L-Gln]-E-Propenoate]	124,000 M-1 sec-1	0.18		> 100			
CCOC(=O)/C=C/[C@H](CCC(N)=O)NC(=O)[C@H](C)NC(=O)[C@H](CC(C)C)NC(=O)OCc1ccccc1 [Compound 109]	1,348 M-1 sec-1	20	> 320				
CCOC(=O)/C=C/[C@H](CCC(N)=O)NC(=O)[C@H](Cc1ccccc1)NC(=O)[C@H](CC(C)C)NC(=O)c1ccc(C(=O)NC)cc1 [Compound 129]	230,000 M-1 sec-1	> 320	> 320				
CC(C)C[C@H](NC(=O)OCc1ccccc1)C(=O)N[C@@H](Cc1ccccc1)C(=O)N[C@H](/C=C/C(=O)N(C)c1ccccc1)CCC(N)=O [Compound 60]	575 M⁻¹ s⁻¹	158	> 320				5
CCOC(=O)/C(C)=C/[C@H](CCC(N)=O)NC(=O)[C@H](Cc1ccccc1)NC(=O)[C@H](CC(C)C)NC(=O)OCc1ccccc1 [Compound 82]	7,300 M-1 sec-1	3	> 320				26
COc1ccc(C(=O)/C=C/[C@H](CCC(N)=O)NC(=O)[C@H](Cc2ccccc2)NC(=O)[C@H](CC(C)C)NC(=O)OCc2ccccc2)cc1 [Compound 42]	150,000 M-1 sec-1	22.4	100				
CCOC(=O)/C=C/[C@H](CCC(N)=O)NC(=O)[C@H](Cc1ccc(OC(C)=O)cc1)NC(=O)[C@H](CC(C)C)NC(=O)OCc1ccccc1 [Compound 100]	1,200 M-1 sec-1	11.1		> 320			
CCOC(=O)/C=C/[C@H](CCC(N)=O)NC(=O)[C@H](Cc1ccccc1)NC(=O)[C@H](CC(C)C)NC(=O)c1ccccc1 [Compound 67]	9,600 M-1 sec-1	5.2	> 320				
CCOC(=O)/C=C/[C@H](CCC(N)=O)NC(=O)[C@H](Cc1ccc(O)cc1)NC(=O)[C@H](CC(C)C)NC(=O)OCc1ccccc1 [Compound 53]	11,320 M-1 sec-1	5.3	> 320				
CC(C)C[C@H](NC(=O)OCc1ccccc1)C(=O)N[C@@H](Cc1ccccc1)C(=O)N[C@H](/C=C/C(=O)N1CCc2ccc(S(C)(=O)=O)cc21)CCC(N)=O [Compound 97]	12,900 M-1 sec-1	> 320		> 320			
CCOC(=O)/C=C/[C@H](CCC(N)=O)NC(=O)[C@H](Cc1ccccc1)NC(=O)[C@H](CC(C)C)NC(=O)SC1CCCC1 [Compound 182]	114,360 M-1 sec-1	0.18	> 100				
CCOC(=O)/C=C/[C@H](CCC(N)=O)NC(=O)[C@H](CC)NC(=O)[C@H](CC(C)C)NC(=O)OCc1ccccc1 [Compound 108]	4,694 M-1 sec-1	6	> 320				
CCOC(=O)/C=C/[C@H](CCC(N)=O)NC(=O)[C@H](Cc1ccccc1)NC(=O)[C@H](CC(C)C)NC(=O)C1CCCC1 [Compound 116]	23,670 M-1 sec-1	0.6	> 320				
CC(C)CC(NC(=O)OCc1ccccc1)C(=O)NC(Cc1ccccc1)C(=O)NC(C=CC(=O)N1CCC(O)C1)CCC(N)=O (stereo not shown) [Compound 39]	1,200 M-1 sec-1	> 320	> 320				
CC(C)C[C@H](NC(=O)OCc1ccccc1)C(=O)N[C@@H](Cc1ccccc1)C(=O)N[C@H](/C=C/[N+](=O)[O-])CCC(N)=O [Compound 125]	>500,000 M-1 sec-1	> 100	100				
CC(C)C[C@H](NC(=O)OCc1ccccc1)C(=O)N[C@@H](Cc1ccccc1)C(=O)N[C@H](/C=C/C(=O)Nc1ccccc1)CCC(N)=O [Compound 59]	200 M⁻¹ s⁻¹	> 320		> 320			2
CCOC(=O)/C=C/[C@H](CCC(N)=O)NC(=O)[C@H](Cc1ccccc1)NC(=O)[C@@H](NC(=O)SC1CCCC1)C(C)(C)SC [Compound 178, Ethyl-3-[Cyclopentylthiocarbonyl-L-(S-Me-Pen)-L-Phe-L-Gln]-E-Propenoate]	286,300 M-1 sec-1	0.1	> 100				
CSc1cccc2c1N(C(=O)/C=C/[C@H](CCC(N)=O)NC(=O)[C@H](Cc1ccccc1)NC(=O)[C@H](CC(C)C)NC(=O)OCc1ccccc1)CC2 [Compound 96]	300 M⁻¹ s⁻¹	19.1		100			
CCOC(=O)C=CC(CCC(N)=O)NC(=O)C(Cc1ccccc1)NC(=O)C(NC(=O)OCc1ccccc1)c1ccccc1 (stereo not shown) [Compound 71]	20,650 M-1 sec-1	14.1	> 320				

Reference: patent US6362166B1, “Antipicornaviral compounds and methods for their use and preparation” (Agouron Pharmaceuticals, Inc., priority 1996, dated 2002)
